Experimental data taken from patent US10774039B2, “Cyclopropene amino acids and methods” (United Kingdom Research and Innovation, priority 2014, dated 2020).

Key:
PylRS/tRNACUA pair = experiment: Site-specific incorporation into sfGFP150TAG expressed in E. coli; type: cell-based, Methanosarcina barkeri
Method: FIG. 2A: The PylRS/RNACUA pair directs efficient, site-specific incorporation of 3 into sfGFP bearing an amber stop codon at position 150.
Expression and purification of sfGFP-3 from E. coli Electrocompetent E. coli DH10B cells were co-transformed with pBK-MbPylRS and psfGFP150TAG PyIT^14, 26. Transformed cells were recovered in S.O.B. (1 mL, supplemented with 0.2% glucose) for 1 h at 37° C. and used to inoculate LB containing 50 μg/mL kanamycin and 25 μg/mL tetracycline (LB-KT). The cells were incubated with shaking overnight at 37° C., 250 r.p.m. 1 mL of overnight culture was used to inoculate 100 mL of LB-KT½, the day culture was then incubated (37° C., 250 r.p.m). At O.D.600˜0.3, the culture was divided equally and supplemented with either 3 (1 mM) or H2O (500 μL) and incubated further (37° C., 250 r.p.m). At O.D.600˜0.6 protein expression was induced by the addition of arabinose (0.2%), after 4 h, the cells were harvested by centrifugation (4000 r.p.m, 20 min) and the pellet frozen until further use.
The frozen bacterial pellet was thawed on ice and resuspended in 2.5 mL lysis buffer (Bugbuster®, Novagen®, 50 μg/mL DNAse 1, Roche inhibitor cocktail and 20 mM imidazole). Cells were incubated (4° C., 30 minutes) then clarified by centrifugation (16000 g, 4° C., 30 minutes). The clarified lysates were transferred to fresh tubes and 100 μL Ni-NTA slurry added. The mixtures was incubated with agitation (4° C., 1 h) and then collected by centrifugation (1000 g, 4° C., 5 min). The beads were resuspended three times in 500 μL wash buffer (10 mM Tris-HCL, 40 mM imidazole, 200 mM NaCl, pH 8) and collected by centrifugation (1000 g, 4° C., 5 min). Finally, the beads were resuspended in 100 μL, elution buffer (10 mM Tris-HCL, 300 mM imidazole, 200 mM NaCl, pH 8), pelleted by centrifugation (1000 g, 4° C., 5 min) and the supernatant collected into fresh tubes. The elution was repeated three times with 100 μL of elution buffer. The purified proteins were analysed by 4-12% SDS-PAGE and LC-MS.

[1] = In vitro labelling of purified sfGFP150 proteins with tetrazine-dye conjugate 4a, time course and rate constant; conditions: restated in example 6
Method: FIG. 2C: Determining the rate constant for labelling of sfGFP-3 (10.6 sfGFP incorporating 3 at position 150), with 10 equivalents of 4a. 2 nmol of purified sfGFP-3, (10.6 μM in 20 mM Tris-HCl, 100 mM NaCl, 2 mM EDTA, pH 7.4) were incubated with 20 nmol of tetrazine-dye conjugate 4a (10 μl of a 2 mM solution in DMSO). At different time points 8 μl, aliquots were taken from the solution and quenched with a 700-fold excess of BCN and plunged into liquid nitrogen. Samples were mixed with NuPAGE LDS sample buffer supplemented with 5% β-mercaptoethanol, heated for 10 min to 90° C. and analyzed by 4-12% SDS page. The amounts of labelled proteins were quantified by scanning the fluorescent bands with a Typhoon Trio phosphoimager (GE Life Sciences). Bands were quantified with the ImageQuant™ TL software (GE Life Sciences) using rubber band background subtraction. The rate constant was determined by fitting the data to a single-exponential equation. The calculated observed rate k′ was divided by the concentration of 4a to obtain rate constant k for the reaction. Measurements were done in triplicate. All data processing was performed using Kaleidagraph software (Synergy Software, Reading, UK). […]

DH10B cells = experiment: E. coli growth (OD600) in presence of 3 during SORT-M; type: cell-based
Method: Chemically competent DH10B cells were transformed with two plasmids: pBKwtPylRS necessary for expression of PylRS, and pBAD_wtT4L_MbPylTXXX plasmids that is required for expression of PyltRNAXXX and expresses lysozyme under arabinose control. […] 200 μL aliquots of these cultures were transferred into a 96-well plate and OD600 measured using a Microplate reader, Infinite 200 Pro (TECAN). OD600 was measured for each sample every 10 min with linear 1 mm shaking between the measurements.

Q: For CC1=CC1COC(=O)NCCCC[C@H](N)C(=O)O (stereo partly drawn) [amino acid 3, N^ε-[((2-methylcycloprop-2-en-1-yl)methoxy)carbonyl]-L-lysine], which yield of protein (PylRS/tRNACUA pair; SfGFP gene with amber codon at position 150, E. coli, PylRS/tRNACUA pair) is on record?
A: The yield of protein was 8 mg per litre of culture.

Q: And the “efficiency of site-specific incorporation into sfGFP” value (PylRS/tRNACUA pair; amber stop codon at position 150, E. coli, compared with 1)?
A: The value was “more efficient than 1”.

Q: And the “on-protein rate constants of reaction with tetrazines” value [1]?
A: The value was 27 M⁻¹ s⁻¹.

Q: And the “toxicity to cells of incorporation via SORT-M” value (DH10B cells; 0.1 mM)?
A: Its value is “Not Toxic”.

Q: And the “effect on cell growth” value (DH10B cells; 0.1 or 0.5 mM)?
A: Its value is “little or no effect on cell growth”.
